The assay concerns the target T1, Kv7.2/7.3 (Homo sapiens, UniProt O43525+O43526).
T1 construct: host or cells: HEK cells, tetracycline-inducible expression
Description: Kv7.2/7.3 activation assay, QPatch planar patch-clamp, single concentration screen. Format: cell-based. Also on record: key: <1.2-fold increase over baseline (−); +/−: as a range from <1.2-fold increase over baseline (−) up to >6-fold increase over baseline (+++); as a range from <1.2-fold increase over baseline (−) up to >6-fold increase over baseline (+++); as a range from <1.2-fold increase over baseline (−) up to >6-fold increase over baseline (+++); >6-fold increase over baseline (+++). Conditions: Kv7.2/Kv7.3 co-expressing HEK cells, compound 3 μM, steady-state current at end of 2 s pulse to −30 mV. As for the experimental part:
The ability of compounds to potentiate K-currents in Kv7.2/7.3 containing HEK cells was assessed using planar patch-clamp on the QPatch automated screening platform.
Cell Line: The hKv7.2/7.3 cell line was obtained from Chantest (Cleveland, OH 44128) cat. #CT6147. These HEK cells will express the Kv7.2/7.3 ion channels when induced.
Cell Culture: Cells were maintained in a media containing DMEM/F12; 50/50 (GIBCO cat. #11330), 10% Fetal Bovine Serum (FBS) (GIBCO cat. #26140), 100 units/mL Penicillin-Streptomycin (GIBCO cat. #15140), 0.005 mg/mL Blasticidin (INVIVOGEN cat. #ant-bl-1), 0.5 mg/mL Geneticin (GIBCO cat. #10131), 0.1 mg/ml Zeocin (GIBCO cat. #R25001). Cells used in the electrophysiology assay were maintained in a media without Blasticidin, Geneticin and Zeocin for 2 days and channel expression was induced by adding tetracycline (BIOLINE cat. #BIO-87030) at a final concentration of 1 mg/mL. Cells were grown in T-175 flask to ˜75% confluency. Currents were recorded 24 hours after channel induction.
Compound Plates: Test compounds were prepared by performing serial dilutions on a Biomek NX^P (BECKMAN COULTER). Final dilutions were made in external recording solution with a final DMSO concentration of 0.1% DMSO. For single concentration screens each plate had 10 μM retigabine as a positive control and 0.1% DMSO as a negative control.
Electrophysiology: On the day of the experiment cells were washed with Hank's Balanced Salt Solution (HBBS) (GIBCO cat. #14175) and harvested with Tryple (GIBCO cat. #12604). Cells were then centrifuged at 2000 rpm for 5 minutes and resuspended in CHO-S-SFM (GIBCO cat. #12052) at ˜3×10^6 cells/mL. Cells were stirred for 30 minutes before experiments were started. External recording solution contained (in mM): NaCl (145), KCl (4), CaCl2 (2), MgCl2 (1), HEPES (10) and Glucose (10); pH was adjusted to 7.4 with NaOH and the osmolarity was adjusted to 300-305 mOsM with sucrose if necessary. Internal solution contained (in mM): KCl (125), KF (10), EGTA (5), Na2ATP (5), MgCl2 (3.2), HEPES (5); pH was adjusted to 7.2 with KOH and the osmolarity was adjusted to 298-302 mOsM with sucrose.
Potassium channel activity was measured on the QPatch HTX (Sophion Bioscience) using QPlates with 48-wells/plate. Each cell was taken as an independent experiment and only one compound was tested per well. Potassium channel activity was elicited by holding at −80 mV and stepping to −30 mV for 2 s followed by a 100 ms pulse to −120 mV.
Single concentration screen: Baseline conditions were obtained by recording 5 sweeps in the external solution only, this was repeated for three applications of the external solution. […] The steady-state current at the end of the 2 s pulse to −30 mV was measured to determine the fold increase from baseline.
On the technique in general: The patch-clamp technique gives a direct electrical read-out from membranes.

The results in this text go back to US12351559B2 (Biohaven Therapeutics Ltd., priority 2014, dated 2025).

Structures are written as SMILES.

As for `CC(C)(C)CC(=O)Nc1nc2ccccc2n1C1CCC1` [Example 1, N-(1-cyclobutyl-1H-benzo[d]imidazol-2-yl)-3,3-dimethylbutanamide], the “Kv7.2/7.3 Activity: increase in current over baseline” value (shortened to “Kv7.2/7.3 Activity: increase”) is “+”.

With `CC(C)(C)CC(=O)Nc1nc2ccccc2n1-c1ccccc1` [Example 2, 3,3-dimethyl-N-(1-phenyl-1H-benzo[d]imidazol-2-yl)butanamide], the “Kv7.2/7.3 Activity: increase” value is “+”.

With `COc1ccc2nc(NC(=O)CCC3CCCC3)n(C(C)C)c2c1` [Example 3, 3-cyclopentyl-N-(1-isopropyl-6-methoxy-1H-benzo[d]imidazol-2-yl)propanamide], the “Kv7.2/7.3 Activity: increase” value is “+++ (>6-fold increase over baseline (+++))”.

Consider `COc1ccc2nc(NC(=O)[C@@H](C)C(C)C)n(C(C)C)c2c1` [Example 4, (S)-N-(1-isopropyl-6-methoxy-1H-benzo[d]imidazol-2-yl)-2,3-dimethylbutanamide], for which the “Kv7.2/7.3 Activity: increase” value is reported as “+/−”.

For `CC(C)(C)CC(=O)Nc1nc2ccc(C#N)cc2n1C1CCC1` [Example 5, N-(6-cyano-1-cyclobutyl-1H-benzo[d]imidazol-2-yl)-3,3-dimethylbutanamide], the “Kv7.2/7.3 Activity: increase” value was “+++ (>6-fold increase over baseline (+++))”.

In the case of `CC(C)[C@H](C)C(=O)Nc1nc2ccc(C#N)cc2n1C1CCC1` [Example 6, (S)-N-(6-cyano-1-cyclobutyl-1H-benzo[d]imidazol-2-yl)-2,3-dimethylbutanamide], the “Kv7.2/7.3 Activity: increase” value was “+”.

Regarding `CC(C)(O)CC(=O)Nc1nc2ccc(C#N)cc2n1C1CCC1` [Example 8, N-(6-cyano-1-cyclobutyl-1H-benzo[d]imidazol-2-yl)-3-hydroxy-3-methylbutanamide], the “Kv7.2/7.3 Activity: increase” value is “+”.

Turning to `N#Cc1ccc2nc(NC(=O)C3CC(F)(F)C3)n(C3CCC3)c2c1` [Example 9, N-(6-cyano-1-cyclobutyl-1H-benzo[d]imidazol-2-yl)-3,3-difluorocyclobutane-1-carboxamide], the “Kv7.2/7.3 Activity: increase” value was “+”.

`N#Cc1ccc2nc(NC(=O)[C@@H]3C[C@@H]4CC[C@H]3C4)n(C3CCC3)c2c1` [Example 10, (1S,2R,4R)-N-(6-cyano-1-cyclobutyl-1H-benzo[d]imidazol-2-yl)bicyclo[2.2.1]heptane-2-carboxamide]: the “Kv7.2/7.3 Activity: increase” value was “+”.

Turning to `CC1(C)C[C@@H]1C(=O)Nc1nc2ccc(C#N)cc2n1C1CCC1` [Example 11, (S)-N-(6-cyano-1-cyclobutyl-1H-benzo[d]imidazol-2-yl)-2,2-dimethylcyclopropane-1-carboxamide], the “Kv7.2/7.3 Activity: increase” value is “++”.

On to `COC(C)(C)CC(=O)Nc1nc2ccc(C#N)cc2n1C1CCC1` [Example 12, N-(6-cyano-1-cyclobutyl-1H-benzo[d]imidazol-2-yl)-3-methoxy-3-methylbutanamide], for which the “Kv7.2/7.3 Activity: increase” value is “+/−”.

As for `C[C@H](C(=O)Nc1nc2ccc(C#N)cc2n1C1CCC1)C(C)(C)O` [Example 13, (S)-N-(6-cyano-1-cyclobutyl-1H-benzo[d]imidazol-2-yl)-3-hydroxy-2,3-dimethylbutanamide], the “Kv7.2/7.3 Activity: increase” value is reported as “+/−”.

`CC(C)[C@@H](C)C(=O)Nc1nc2ccc(C#N)cc2n1C1CCC1` [Example 14, (R)-N-(6-cyano-1-cyclobutyl-1H-benzo[d]imidazol-2-yl)-2,3-dimethylbutanamide]: the “Kv7.2/7.3 Activity: increase” value is reported as “+/−”.

For the molecule `CC(C)(O)[C@H]1C[C@@H]1C(=O)Nc1nc2ccc(C#N)cc2n1C1CCC1` [Example 15, (1S,2S)-N-(6-cyano-1-cyclobutyl-1H-benzo[d]imidazol-2-yl)-2-(2-hydroxypropan-2-yl)cyclopropane-1-carboxamide], the “Kv7.2/7.3 Activity: increase” value is recorded as “+/−”.

For `C[C@](O)(C(=O)Nc1nc2ccc(C#N)cc2n1C1CCC1)C(F)(F)F` [Example 16, (S)-N-(6-cyano-1-cyclobutyl-1H-benzo[d]imidazol-2-yl)-3,3,3-trifluoro-2-hydroxy-2-methylpropanamide], the “Kv7.2/7.3 Activity: increase” value was “+/−”.

On to `CC(O)(CC(=O)Nc1nc2ccc(C#N)cc2n1C1CCC1)c1ccccc1` (centres unmarked) [Example 17, N-(6-cyano-1-cyclobutyl-1H-benzo[d]imidazol-2-yl)-3-hydroxy-3-phenylbutanamide], for which the “Kv7.2/7.3 Activity: increase” value is “++”.

Take `C[C@H](C(=O)Nc1nc2ccc(C#N)cc2n1C1CCC1)[C@@](C)(O)c1ccccc1` [Example 18, (2S,3R)-N-(6-cyano-1-cyclobutyl-1H-benzo[d]imidazol-2-yl)-3-hydroxy-2-methyl-3-phenylbutanamide]: the “Kv7.2/7.3 Activity: increase” value was “+”.

With `C[C@H](C(=O)Nc1nc2ccc(C#N)cc2n1C1CCC1)[C@](C)(O)c1ccccc1` [Example 19, (2S,3S)-N-(6-cyano-1-cyclobutyl-1H-benzo[d]imidazol-2-yl)-3-hydroxy-2-methyl-3-phenylbutanamide], the “Kv7.2/7.3 Activity: increase” value is listed as “+”.

With `C[C@](O)(CC(=O)Nc1nc2ccc(C#N)cc2n1C1CCC1)c1ccccn1` [Example 20, (S)-N-(6-cyano-1-cyclobutyl-1H-benzo[d]imidazol-2-yl)-3-hydroxy-3-(pyridin-2-yl)butanamide], the “Kv7.2/7.3 Activity: increase” value is listed as “+”.

Turning to `C[C@](O)(CC(=O)Nc1nc2ccc(C#N)cc2n1C1CCC1)c1cccnc1` [Example 21, (S)-N-(6-cyano-1-cyclobutyl-1H-benzo[d]imidazol-2-yl)-3-hydroxy-3-(pyridin-3-yl)butanamide], the “Kv7.2/7.3 Activity: increase” value is “+/−”.

Turning to `C[C@H](C(=O)Nc1nc2ccc(C#N)cc2n1C1CCC1)N(C)CC(F)(F)F` [Example 22, (R)-N-(6-cyano-1-cyclobutyl-1H-benzo[d]imidazol-2-yl)-2-(methyl(2,2,2-trifluoroethyl)amino)propanamide], the “Kv7.2/7.3 Activity: increase” value is reported as “+/−”.

With `C[C@H](C(=O)Nc1nc2ccc(C#N)cc2n1C1CCC1)C(C)(C)C` [Example 23, (S)-N-(6-cyano-1-cyclobutyl-1H-benzo[d]imidazol-2-yl)-2,3,3-trimethylbutanamide], the “Kv7.2/7.3 Activity: increase” value is recorded as “++”.

As for `CN(C)C(CC(=O)Nc1nc2ccc(C#N)cc2n1C1CCC1)C(F)(F)F` (centres unmarked) [Example 24, N-(6-cyano-1-cyclobutyl-1H-benzo[d]imidazol-2-yl)-3-(dimethylamino)-4,4,4-trifluorobutanamide], the “Kv7.2/7.3 Activity: increase” value was “+”.

Take `N#Cc1ccc2nc(NC(=O)C[C@@H](O)c3ccccc3)n(C3CCC3)c2c1` [Example 25, (R)-N-(6-cyano-1-cyclobutyl-1H-benzo[d]imidazol-2-yl)-3-hydroxy-3-phenylpropanamide]: the “Kv7.2/7.3 Activity: increase” value is given as “+/−”.

In the case of `N#Cc1ccc2nc(NC(=O)C[C@H](O)c3ccccc3)n(C3CCC3)c2c1` [Example 26, (S)-N-(6-cyano-1-cyclobutyl-1H-benzo[d]imidazol-2-yl)-3-hydroxy-3-phenylpropanamide], the “Kv7.2/7.3 Activity: increase” value is “+/−”.

With `C[C@H](C(=O)Nc1nc2ccc(C#N)cc2n1C1CCC1)C1(O)CCC1` [Example 27, (S)-N-(6-cyano-1-cyclobutyl-1H-benzo[d]imidazol-2-yl)-2-(1-hydroxycyclobutyl)propanamide], the “Kv7.2/7.3 Activity: increase” value was “+/−”.
